In ChEMBL document CHEMBL4619766, “Eudesmacarbonate, a Eudesmane-Type Sesquiterpene from a Marine Filamentous Cyanobacterial Mat (Oscillatoriales) in the Florida Keys” (J Nat Prod, 2020):

Experiments:
[1] = Neurotoxicity in 4 to 5 hpf stage wild type zebrafish AB embryo assessed as effect on spontaneous coiling frequency at >= 38 uM under 14 hrs light and 10 hrs dark condition and measured at 24 hpf stage by microscopic analysis; format: toxicity, Danio rerio; conditions: in vivo
[2] = Toxicity in 4 to 5 hpf stage wild type zebrafish AB embryo assessed as effect on heart rate at 9.4 to 94 uM under 14 hrs light and 10 hrs dark condition and measured at 3 dpf stage by microscopic analysis; parameters: species or system Danio rerio; conditions: in vivo
[3] = Neurotoxicity in 4 to 5 hpf stage wild type zebrafish AB embryo assessed as irregular inflated swim bladder at 9.4 to 94 uM under 14 hrs light and 10 hrs dark condition and measured at 5 dpf stage by microscopic analysis; format: toxicity, Danio rerio; conditions: in vivo
[4] = Neurotoxicity in 4 to 5 hpf stage wild type zebrafish AB embryo assessed as irregular development of swim bladder dysfunction at 9.4 to 94 uM under 14 hrs light and 10 hrs dark condition and measured at 5 dpf stage by microscopic analysis; format: toxicity, Danio rerio; conditions: in vivo
[5] = Neurotoxicity in 4 to 5 hpf stage wild type zebrafish AB embryo assessed as induction of head butting at 9.4 to 94 uM under 14 hrs light and 10 hrs dark condition and measured at 5 dpf stage by microscopic analysis; format: toxicity, Danio rerio; conditions: in vivo
[6] = Neurotoxicity in 4 to 5 hpf stage wild type zebrafish AB embryo assessed as induction of motor incoordination at 9.4 to 94 uM under 14 hrs light and 10 hrs dark condition and measured at 5 dpf stage by microscopic analysis; format: toxicity, Danio rerio; conditions: in vivo
[7] = Neurotoxicity in 4 to 5 hpf stage wild type zebrafish AB embryo assessed as effect on spasms at 9.4 to 94 uM under 14 hrs light and 10 hrs dark condition and measured at 5 dpf stage by microscopic analysis; format: toxicity, Danio rerio; conditions: in vivo
[8] = Neurotoxicity in 7 dpf stage zebra fish PSA larvae assessed induction of larval immobilization at 110 to 190 uM measured within 45 mins; format: toxicity, Danio rerio; conditions: zebrafish, 0.75 h
[9] = Neurotoxicity in 7 dpf stage zebra fish PSA larvae assessed induction of larval immobilization at 38 uM measured over 90 mins; format: toxicity, Danio rerio; conditions: zebrafish, 1.5 h
Danio rerio [10] = species on record: Danio rerio; experiment: Induction of larval immobilization in 7 dpf stage zebra fish PSA assessed as immobilization recovery level at 110 uM incubated for 90 mins followed by medium replacement and measured within 10 mins relative to control; format: toxicity, organism-based; conditions: zebrafish, in vivo, 1.5 h
Danio rerio [11] = species on record: Danio rerio; experiment: Induction of larval immobilization in 7 dpf stage zebra fish PSA assessed as immobilization recovery level at 190 uM incubated for 90 mins followed by medium replacement and measured within 10 mins relative to control; format: toxicity, organism-based; conditions: zebrafish, in vivo, 1.5 h
[12] = Toxicity in 4 to 5 hpf stage wild type zebrafish AB embryo assessed as induction of bradycardia at 4.5 to 22 nM under 14 hrs light and 10 hrs dark condition and measured at 3 dpf stage by microscopic analysis; parameters: species or system Danio rerio; conditions: in vivo, 0.022 µM
[13] = Neurotoxicity in 4 to 5 hpf stage wild type zebrafish AB embryo assessed as irregular inflated swim bladder at 4.5 to 22 nM under 14 hrs light and 10 hrs dark condition and measured at 5 dpf stage by microscopic analysis; format: toxicity, Danio rerio; conditions: in vivo, 0.022 µM
[14] = Neurotoxicity in 4 to 5 hpf stage wild type zebrafish AB embryo assessed as induction of head butting at 4.5 to 22 nM under 14 hrs light and 10 hrs dark condition and measured at 5 dpf stage by microscopic analysis; format: toxicity, Danio rerio; conditions: in vivo, 0.022 µM
[15] = Neurotoxicity in 4 to 5 hpf stage wild type zebrafish AB embryo assessed as induction of motor incoordination at 4.5 to 22 nM under 14 hrs light and 10 hrs dark condition and measured at 5 dpf stage by microscopic analysis; format: toxicity, Danio rerio; conditions: in vivo, 0.022 µM
[16] = Neurotoxicity in 4 to 5 hpf stage wild type zebrafish AB embryo assessed as effect on spasms at 4.5 to 22 nM under 14 hrs light and 10 hrs dark condition and measured at 5 dpf stage by microscopic analysis; format: toxicity, Danio rerio; conditions: in vivo, 0.022 µM
[17] = Neurotoxicity in 4 to 5 hpf stage wild type zebrafish AB embryo assessed as reduction in spontaneous coiling frequency at 4.5 to 22 nM under 14 hrs light and 10 hrs dark condition and measured at 24 hpf stage by microscopic analysis; format: toxicity, Danio rerio; conditions: in vivo, 0.022 µM

| SMILES | Activity [1] | Activity [2] | Activity [3] | Activity [4] | Activity [5] | Activity [6] | Activity [7] | Activity [8] | Activity [9] | Activity (Danio rerio [10]) [%] | Activity (Danio rerio [11]) [%] | Activity [12] | Activity [13] | Activity [14] | Activity [15] | Activity [16] | Activity [17] |
| --- | --- | --- | --- | --- | --- | --- | --- | --- | --- | --- | --- | --- | --- | --- | --- | --- | --- |
| CC(C)[C@@H]1CC[C@]2(C)CCC[C@]3(C)OC(=O)O[C@H]1[C@@H]23 | Toxic | Toxic | Toxic | Toxic | Toxic | Toxic | Toxic | Toxic | Non-Toxic | 87 | 47 |  |  |  |  |  |  |
| C=C(C=O)C[C@@H]1C[C@H](O)[C@]2(C)O[C@@H]3C[C@@H]4O[C@@H]5C[C@]6(C)O[C@]7(C)CC[C@@H]8O[C@@H]9C[C@]%10(C)O[C@@H]%11C(C)=CC(=O)O[C@H]%11C[C@H]%10O[C@H]9C[C@@H](C)[C@H]8O[C@H]7C[C@H]6O[C@@]5(C)C/C=C\[C@H]4O[C@H]3C[C@H]2O1 [BREVETOXIN B] |  |  |  |  |  |  |  |  |  |  |  | Toxic | Toxic | Toxic | Toxic | Toxic | Non-Toxic |
